The text below walks through data of ChEMBL document CHEMBL1201862, “PubChem BioAssay data set” (2004).

SMILES strings stand for the structures.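 Dose response: 5 concentrations. Exposure: 48 h. Format: 96-well plates. Endpoint: linear interpolation; highest concentration if not reached. At the GI50, growth is halved.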 Activity calls are given as the source filed them. No stated cut-off is given here; in the data, active = GI50 up to about 1.1 µM and inactive = higher.

Some test systems named below: A549; CAKI-1; HCT-116; HL-60; HOP-92; LOX IMVI; MCF7; Malme-3M; OVCAR-4; SF-268; SK-MEL-28; SNB-19; SR; UACC-62; KM12; NCI-H23; NCI/ADR-RES; SN12C; A498; NCI-H226.
Holding throughout (assay): inhibition of tumour cell growth, NCI panel, 48 h

On to `c1ccc(COc2ccc(CC3SCCCS3)cc2)cc1`, for which the GI50 in the assay with A549 was > 100 µM (inactive); with CAKI-1, 62.7 µM (inactive); in the assay on HCT-116, > 100 µM (inactive); in the assay with HL-60, 23.2 µM (inactive); in the assay on HOP-92, 17.8 µM (inactive); in the assay on LOX IMVI, > 100 µM (inactive). In addition, the GI50 in the assay with MCF7, with Malme-3M, in the assay with OVCAR-4, with SF-268, in the assay on SK-MEL-28 and with SNB-19 was > 100 µM (inactive) throughout. For the same compound, the GI50 was 34.4 µM (inactive) with SR and > 100 µM (inactive) with UACC-62.

Regarding `NC(CCCCP(=O)(O)O)C(=O)O` (stereo not drawn), the GI50 with A549 was > 100 µM (inactive); with CAKI-1 it was 14.3 µM (inactive); with HCT-116, > 100 µM (inactive); in the assay with HL-60 it was > 100 µM (inactive); in the assay with HOP-92 it was > 100 µM (inactive); in the assay on KM12, > 100 µM (inactive). Besides, the GI50 in the assay on LOX IMVI, with NCI-H23, with NCI/ADR-RES, with OVCAR-4, in the assay on SF-268 and in the assay with SK-MEL-28 was > 100 µM (inactive) throughout. The GI50 in the assay with SN12C, in the assay on SNB-19, in the assay on SR and in the assay on UACC-62 was > 100 µM (inactive) in each case.

For `COc1ccc(C2=NNC(c3cc4cc(Br)ccc4nc3Cl)C2)cc1` (stereo not drawn), the GI50 in the assay with A498 is > 25 µM (inactive); with CAKI-1, 12.6 µM (inactive); in the assay with HCT-116, 10.5 µM (inactive); in the assay with HL-60, 6.19 µM (inactive); in the assay on HOP-92 it was > 25 µM (inactive); with KM12 it was 22.9 µM (inactive). In addition, the GI50 with MCF7 is 6.67 µM (inactive); in the assay with NCI-H226 it was 0.0107 µM (active); with NCI-H23 it was 15.4 µM (inactive); in the assay with OVCAR-4, 15.3 µM (inactive); in the assay with SK-MEL-28, 15.5 µM (inactive); in the assay on SN12C it was 7.66 µM (inactive). For the same compound, the GI50 in the assay with SR is 0.185 µM (active); in the assay on UACC-62, 22.6 µM (inactive).

As for `O=c1[nH]c2ccccc2c(=O)n1/N=C\c1ccccc1O`, the GI50 with A498 was > 100 µM (inactive); in the assay on A549, > 100 µM (inactive); in the assay with CAKI-1, > 100 µM (inactive); with HCT-116, > 100 µM (inactive); in the assay on HL-60, 36.1 µM (inactive); in the assay on HOP-92 it was 67 µM (inactive). The GI50 with KM12 is 30.5 µM (inactive); with LOX IMVI it was > 100 µM (inactive); in the assay on MCF7, > 100 µM (inactive); in the assay with NCI-H226 it was > 100 µM (inactive); in the assay on NCI-H23 it was > 100 µM (inactive); in the assay with SF-268 it was 58.6 µM (inactive). Besides, the GI50 in the assay on SK-MEL-28, in the assay with SN12C, in the assay on SNB-19, in the assay with SR and in the assay with UACC-62 was > 100 µM (inactive) throughout.

Take `COc1ccc2[nH]c3c(C)c4cc[n+](C)cc4c(C)c3c2c1`: the GI50 was 2 µM (inactive) with HCT-116; 22 µM (inactive) with HL-60; 3.21 µM (inactive) with HOP-92; 1.62 µM (inactive) in the assay with KM12; 10.2 µM (inactive) in the assay with LOX IMVI; 2.39 µM (inactive) in the assay with MCF7. Moreover, the GI50 with Malme-3M is 1.06 µM (active); in the assay on NCI-H226, 0.301 µM (active); in the assay on NCI-H23, 0.649 µM (active); in the assay with NCI/ADR-RES, 22 µM (inactive); with OVCAR-4, 3.37 µM (inactive); with SF-268 it was 0.197 µM (active). The GI50 was 2.18 µM (inactive) in the assay with SK-MEL-28, 0.116 µM (active) with SN12C, 0.273 µM (active) in the assay on SNB-19 and 3.48 µM (inactive) in the assay with UACC-62.

As to `CC(=O)OC(CCC1(C)OC1COc1ccc(CCNC(=O)C=C(C)C)cc1)C(C)(C)OC(C)=O` (stereo not drawn), the GI50 was > 100 µM (inactive) in the assay with A498; 29.3 µM (inactive) with A549; > 100 µM (inactive) in the assay on CAKI-1; 0.611 µM (active) in the assay on HCT-116; > 32.1 µM (inactive) in the assay on HL-60; > 100 µM (inactive) in the assay on HOP-92. The GI50 is 17.8 µM (inactive) with KM12; 5.85 µM (inactive) in the assay on LOX IMVI; 23.5 µM (inactive) in the assay on Malme-3M; > 57 µM (inactive) with NCI-H226; 0.647 µM (active) in the assay on NCI-H23; 10.6 µM (inactive) in the assay with NCI/ADR-RES. In addition, the GI50 with OVCAR-4 is 23.7 µM (inactive); with SF-268, > 61.2 µM (inactive); in the assay on SK-MEL-28 it was 28.2 µM (inactive); with SN12C, > 100 µM (inactive); in the assay with SNB-19, > 100 µM (inactive); in the assay with SR, 24.9 µM (inactive). In addition, the GI50 in the assay on UACC-62 is 18.4 µM (inactive).

For `CCOC(=O)C1CC(O)C(=O)N1C` (stereo not drawn), the GI50 in the assay on A549, in the assay on CAKI-1, in the assay on HCT-116, with HL-60, in the assay with HOP-92 and with LOX IMVI was > 100 µM (inactive) throughout. The GI50 in the assay with MCF7, in the assay with NCI-H226, with NCI-H23, in the assay on OVCAR-4, with SK-MEL-28 and with SN12C was > 100 µM (inactive) in each case. For the same compound, the GI50 in the assay on SNB-19, with SR and in the assay on UACC-62 was > 100 µM (inactive) each time.

For the compound `CCOC(OCC)(OCC)C(Br)CC` (stereo not drawn), the GI50 in the assay with A498 was > 100 µM (inactive); in the assay on A549, > 100 µM (inactive); in the assay on CAKI-1 it was > 100 µM (inactive); in the assay on HCT-116 it was 0.0281 µM (active); in the assay with HL-60 it was > 100 µM (inactive); with HOP-92 it was > 100 µM (inactive). Further, the GI50 is > 100 µM (inactive) with KM12; 88.1 µM (inactive) in the assay with LOX IMVI; > 100 µM (inactive) with Malme-3M; > 100 µM (inactive) with NCI-H226; > 100 µM (inactive) with NCI-H23; > 100 µM (inactive) in the assay with OVCAR-4. The GI50 in the assay with SF-268 is 36.7 µM (inactive); in the assay on SK-MEL-28 it was > 100 µM (inactive); in the assay on SN12C, 64.9 µM (inactive); in the assay on SNB-19, > 100 µM (inactive); in the assay with SR it was 21.6 µM (inactive); with UACC-62, > 100 µM (inactive).

For `C=C(C)C(=O)O[C@@H]1C/C(C)=C\[C@H](OC(C)=O)C[C@](C)(O)/C=C2/OC(=O)C(COC(C)=O)=C21`, the GI50 was 3.34 µM (inactive) with A498; 2.95 µM (inactive) with A549; 0.329 µM (active) with CAKI-1; 0.394 µM (active) in the assay with HCT-116; 0.013 µM (active) in the assay on HL-60; 0.437 µM (active) with HOP-92. Moreover, the GI50 with KM12 was 6.32 µM (inactive); in the assay on LOX IMVI, 0.152 µM (active); in the assay on MCF7, 1.05 µM (active); in the assay with Malme-3M, 0.274 µM (active); in the assay with NCI-H226, 1.91 µM (inactive); in the assay on NCI-H23 it was 1.77 µM (inactive). Also, the GI50 in the assay on OVCAR-4 is 1.93 µM (inactive); in the assay on SF-268, 0.668 µM (active); in the assay with SK-MEL-28, 0.251 µM (active); in the assay on SN12C it was 0.783 µM (active); in the assay with SNB-19, 12.3 µM (inactive); with SR, 0.0423 µM (active). The GI50 in the assay with UACC-62 is 0.692 µM (active).

On to `Cc1cc(-c2ccc(C(=O)O)[nH]2)on1`, for which the GI50 in the assay on A498 was > 100 µM (inactive); in the assay on A549, 34.8 µM (inactive); in the assay with CAKI-1, 79.1 µM (inactive); with HCT-116 it was 29.2 µM (inactive); in the assay on HOP-92, 66.7 µM (inactive); in the assay with KM12 it was > 100 µM (inactive). Further, the GI50 with MCF7 is 39 µM (inactive); with Malme-3M it was 38.2 µM (inactive); in the assay on NCI-H23, 69 µM (inactive); with NCI/ADR-RES, 24.9 µM (inactive); in the assay with OVCAR-4, > 100 µM (inactive); in the assay on SF-268 it was > 100 µM (inactive). For the same compound, the GI50 in the assay on SK-MEL-28 is > 100 µM (inactive); in the assay with SNB-19, 61.4 µM (inactive); in the assay on UACC-62 it was 48 µM (inactive).

`C[n+]1c2ccccc2c(C(=O)Nc2ccc(S(=O)(=O)N=C(N)N)cc2)c2ccccc21`: the GI50 with A498 was > 100 µM (inactive); with A549, > 100 µM (inactive); in the assay on CAKI-1, > 100 µM (inactive); in the assay with HCT-116, > 100 µM (inactive); in the assay on KM12, > 100 µM (inactive); in the assay on LOX IMVI, 75.3 µM (inactive). Besides, the GI50 in the assay with MCF7, in the assay with Malme-3M, with NCI-H226, in the assay on NCI-H23, in the assay on NCI/ADR-RES and in the assay on OVCAR-4 was > 100 µM (inactive) throughout. For the same compound, the GI50 in the assay on SF-268, in the assay on SK-MEL-28, with SN12C, in the assay with SNB-19 and in the assay on UACC-62 was > 100 µM (inactive) throughout.

Take `CC(=O)OCC1OC(Nc2nc(O)n(C)c(=O)c2-c2csc(N)n2)C(OC(C)=O)C(OC(C)=O)C1OC(C)=O` (stereo not drawn): the GI50 in the assay on A498 was > 100 µM (inactive); with A549, > 100 µM (inactive); in the assay with CAKI-1, > 100 µM (inactive); with HCT-116 it was > 100 µM (inactive); in the assay with HL-60, 70 µM (inactive); in the assay on HOP-92 it was > 100 µM (inactive). For the same compound, the GI50 in the assay with KM12, in the assay on LOX IMVI, in the assay on Malme-3M, with NCI-H226, with NCI-H23 and in the assay with OVCAR-4 was > 100 µM (inactive) throughout. Besides, the GI50 with SF-268, in the assay on SK-MEL-28, with SN12C, in the assay on SNB-19, in the assay with SR and in the assay on UACC-62 was > 100 µM (inactive) throughout.
